Patent US20200399632A1, “SENSOR SYSTEMS” (enEvolv, Inc., priority 2018, published 2020)

Tests used:
TtgR = TtgR sensor GFP response of MAGE-engineered E. coli MG1655 mutants to exogenously applied naringenin; assay type: cell-based; conditions: naringenin 0, 31, 63 or 125 μM; three MAGE-engineered E. coli MG1655 clones, medium-copy plasmid with TtgR and gfp
Excerpt: The three clones were transformed with a medium-copy plasmid harboring TtgR and gfp under the control of an engineered ttgAp promoter. […] No naringenin pathway enzymes were present during these experiments, eliminating any interference by endogenously produced naringenin. The variation was not resolved upon transferring the sensor system to the genome (not shown) or switching to a high-copy sensor plasmid (FIG. 2A).

[1] = tested on: E. coli BW25113 Δptsl::kanR pSENSORGFP-PtsI sensor strain; experiment: GFP fluorescence of sensor cells encapsulated in droplets with naringenin (microscope); assay type: cell-based; conditions: 500 μM naringenin with sensor cells; 33° C., 48 hours; FIG. 5d
Excerpt: FIGS. 4A-B establish co-culturing of producer cells and sensor cells as a viable strategy for screening. Sensor cells were engineered in an E. coli BW25113 Δptsl::kanR background, which is unable to grow on glucose as a sole carbon source. The glucose transporter ptsl and fluorescence reporter gfp were expressed co-cistronically under the control of a TtgR-regulated promoter on the plasmid pSENSORGFP-PtsI, such that growth and the magnitude of GFP signal are naringenin-dependent. […] Following incubation, the water-in-oil droplets were encapsulated in another aqueous phase, generating water-in-oil-in-water droplets, which were observed on a standard fluorescence activated cell sorter (FACS). […]
2E6 pNARnull, 2E6 pNAR^low, 2E6 pNARhigh, were co-cultured with the E. coli BW25113 Δptsl::kanR pSENSORGFP-PtsI sensor strain described in Example 3. […] Double emulsions were analyzed under the microscope prior to FACS analysis. […]

[2] = Diffusion between droplets: naringenin droplets co-incubated with sensor cell droplets; assay type: physicochemical; conditions: droplets with 500 μM naringenin mixed with sensor cell droplets; 1% Ran Fluorosurfactant in HFE7500; FIG. 6
Procedure: FIG. 6 is an image showing fluorescence of two sets of droplet co-incubated for 24 hours. The first set of droplets contained 500 μM naringenin and the second set of droplets contained naringenin sensor cells. If diffusion was occurring between the droplets, the sensor cells would become fluorescent over the 24 hour period.
2E6 pNARnull, 2E6 pNAR^low, 2E6 pNARhigh, were co-cultured with the E. coli BW25113 Δptsl::kanR pSENSORGFP-PtsI sensor strain described in Example 3. The four cultures were grown overnight in LB medium, subdiluted 1 to 100 in minimal medium supplemented with the appropriate antibiotic and then grown into log phase. Once in log phase, the E. coli were rinsed 3× with 1× filtered M9 salts and then diluted to an OD600 of 1.0. The 2E6 strains were diluted to an OD600 of 0.01 to ensure that a single producer strain is present in each encapsulated droplet and the sensor cells were diluted to 0.1 to ensure that each droplet gets at least 5 sensor cells. Six sets of droplets were produced, (1) sensor cell only, (2) sensor cell with 500 μM naringenin, (3) 2E6 pNARhigh with sensor cell and 1 mM IPTG, (4) 2E6 pNARnull with sensor cell and 1 mM IPTG, (5), 2E6 pNARlow with sensor cell and 1 mM IPTG, and (6) naringenin only droplets. […] Double emulsions were analyzed under the microscope prior to FACS analysis. […]

## O=C1C[C@@H](c2ccc(O)cc2)Oc2cc(O)cc(O)c21 [naringenin]
TtgR
  GFP expression induced in TtgR sensor strains: induced different levels of GFP expression
[1]
  fluorescence of positive control droplets: very fluorescent
[2]
  diffusion between droplets: no diffusion between droplets
